Laboratory results from ChEMBL document CHEMBL1134540, “ElogD(oct): a tool for lipophilicity determination in drug discovery. 2. Basic and neutral compounds” (J Med Chem, 2001).

Experiment: Partition coefficient (logD7.4)
Conditions: octanol/water, pH 7.4

SMILES	logD
CN1C(=O)C(O)N=C(c2ccccc2Cl)c2cc(Cl)ccc21 (stereo unspecified) [LORMETAZEPAM]	2.72
CC(C)N(CCC(C(N)=O)(c1ccccc1)c1ccccn1)C(C)C (stereo unspecified) [DISOPYRAMIDE]	-0.66
CSc1ccc2c(c1)N(CCC1CCCCN1C)c1ccccc1S2 (stereo unspecified) [THIORIDAZINE]	3.34
CN1CCN(CC(=O)N2c3ccccc3C(=O)Nc3cccnc32)CC1 [PIRENZEPINE]	-0.61
c1ccc2ncccc2c1 [QUINOLINE]	2.03
Nc1nc(N)c2nc(-c3ccccc3)c(N)nc2n1	1.21
NC(=O)N/N=C/c1ccc([N+](=O)[O-])o1 [NITROFURAZONE]	0.23
CNC(=C[N+](=O)[O-])NCCSCc1ccc(CN(C)C)o1 [RANITIDINE]	-0.29
CNS(=O)(=O)Cc1ccc2[nH]cc(CCN(C)C)c2c1	-1
CC/C(=C(/CC)c1ccc(O)cc1)c1ccc(O)cc1 [DIETHYLSTILBESTROL]	5.07
c1ccc(-c2ccc(C(c3ccccc3)n3ccnc3)cc2)cc1 (stereo unspecified) [BIFONAZOLE]	4.77
Brc1cnc2ccccc2c1	3.03
C[C@]12CC[C@H]3[C@@H](CCC4=CC(=O)CC[C@@]43C)[C@@H]1CC[C@@H]2O [TESTOSTERONE]	3.29
CN1CCC[C@H]1c1cccnc1 [NICOTINE]	0.4
CSc1ncnc2c1ncn2[C@@H]1O[C@H](CO)[C@@H](O)[C@H]1O	0.09
NC(=O)N1c2ccccc2C=Cc2ccccc21 [CARBAMAZEPINE]	2.19
COC1=CC(=O)C[C@@H](C)[C@]12Oc1c(Cl)c(OC)cc(OC)c1C2=O [GRISEOFULVIN]	2.18
COC(=O)[C@H]1[C@@H](OC(=O)c2ccccc2)C[C@@H]2CC[C@H]1N2C [COCAINE]	1.05

SMILES	logD
Oc1cc(Cl)cc(Cl)c1	3.68
CS(=O)(=O)c1ccc([C@@H](O)[C@@H](CO)NC(=O)C(Cl)Cl)cc1 [THIAMPHENICOL]	-0.27
O=C(NCC1CCCCN1)c1cc(OCC(F)(F)F)ccc1OCC(F)(F)F (stereo unspecified) [FLECAINIDE]	0.97
Oc1ncnc2[nH]ncc12 [ALLOPURINOL]	-0.44
O=[N+]([O-])c1ccc(/C=N/O)o1 [NIFUROXIME]	1.28
CNC(=C[N+](=O)[O-])NCCSCc1csc(CN(C)C)n1 [NIZATIDINE]	-0.52
Clc1cccc(Cl)c1N=C1NCCN1 [CLONIDINE]	0.62
CCCCNc1ccc(C(=O)OCCN(C)C)cc1 [TETRACAINE]	2.29
COc1ccc2c3c1O[C@H]1[C@@H](O)C=C[C@H]4[C@@H](C2)N(C)CC[C@@]341 [CODEINE]	0.23
CC(=O)CCCCn1c(=O)c2c(ncn2C)n(C)c1=O [PENTOXIFYLLINE]	0.29
CN(C)CCC(c1ccc(Cl)cc1)c1ccccn1 (stereo unspecified) [CHLORPHENIRAMINE]	1.41
NS(=O)(=O)c1cc(C2(O)NC(=O)c3ccccc32)ccc1Cl (stereo unspecified) [CHLORTHALIDONE]	1.11
COc1ccc2[nH]c([S+]([O-])Cc3ncc(C)c(OC)c3C)nc2c1 (stereo unspecified) [OMEPRAZOLE]	2.3
CCN(CC)CCNC(=O)c1cc(S(C)(=O)=O)ccc1OC [TIAPRIDE]	-0.09
C=CCc1ccccc1OCC(O)CNC(C)C (stereo unspecified) [ALPRENOLOL]	0.97
O=C1CN=C(c2ccccn2)c2cc(Br)ccc2N1 [BROMAZEPAM]	1.65
CC(C)(C)NCC(O)c1cc(O)cc(O)c1 (stereo unspecified)	-1.35
CCOC(=O)C1=C(COCCN)NC(C)=C(C(=O)OC)C1c1ccccc1Cl (stereo unspecified) [AMLODIPINE]	1.66
